Data reported in US20060276464A1, “Diarylsulfone sulfonamides and use thereof” (Wyeth, priority 2005, published 2006).
Values joined by “and” are separate entries in the source; they are usually repeats but may differ in a detail not shown here. Equal entries are not always repeated. Where two headings read alike, the source gives them in different places.

Tests used:
SFRP-1 [1] = target: T1, SFRP-1 (Homo sapiens, UniProt Q8N474); assay: Cell-based assay for in vitro measurement of SFRP-1/SARP2 antagonist activity (U2OS cells co-transfected with 16x TCF-tk-Luciferase reporter, Wnt and hSFRP-1); details: for fold induction at 15 µM / fold induction at 10 µM: U2OS; for fold induction at 10 µM: read-out: Fold Induction with SFRP-1, U2OS cells, single dose 10 μM, luciferase reporter, fold induction over SFRP-1 control;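 for all read-outs here: U2OS cells co-transfected with a TCF-tk luciferase reporter, a Wnt vector, hSFRP-1 or empty vector and CMV-βgal, luciferase luminescence read in cell lysates alongside βgal activity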
T1 sequence (Q8N474 32-314): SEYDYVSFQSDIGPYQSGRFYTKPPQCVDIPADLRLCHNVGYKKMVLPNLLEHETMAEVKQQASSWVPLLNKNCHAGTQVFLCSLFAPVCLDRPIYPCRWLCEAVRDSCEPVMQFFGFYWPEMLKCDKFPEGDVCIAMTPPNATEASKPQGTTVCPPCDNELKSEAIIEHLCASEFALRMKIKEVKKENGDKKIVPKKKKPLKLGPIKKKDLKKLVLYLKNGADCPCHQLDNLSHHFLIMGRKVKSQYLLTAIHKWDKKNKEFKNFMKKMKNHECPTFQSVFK

SFRP-1 [2] = target: T1, SFRP-1; assay: Fluorescence polarization binding assay (competitive displacement of a probe compound from SFRP-1); details: fluorescence anisotropy, 45 nM SFRP-1, 20 nM probe;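 note: test compound competes with a fluorescent probe held by SFRP-1, seen as a drop in probe anisotropy after incubation in darkness, with anisotropy as function of rising compound dose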
[3] = read-out: Fold Induction with SFRP-1, Conc 15 μM, single dose, luciferase reporter, fold induction over SFRP-1 control, cells with SFRP-1
[4] = read-out: Fold Induction without SFRP-1, Conc 15 μM, single dose, luciferase reporter, cells without SFRP-1 (specificity control)

Compound	melting point	fold induction at 15 µM (SFRP-1 [1]; [3])	fold induction at 15 µM (SFRP-1 [1]; [4])	IC50 (SFRP-1 [2])	EC50 (SFRP-1 [1])	fold induction at 10 µM (SFRP-1 [1])	fold induction at 15 µM (SFRP-1 [1]; read-out: Fold Induction with SFRP-1, Conc 15 μM, with SFRP-1, fold induction over SFRP-1 control, single dose)	fold induction at 15 µM (SFRP-1 [1]; read-out: Fold Induction without SFRP-1, Conc 15 μM, without SFRP-1, single dose)
CC(C)c1cc(C(C)C)c(S(=O)(=O)c2ccccc2)cc1S(=O)(=O)NCCc1ccccc1 [Example 609, 2,4-Diisopropyl-N-(2-phenylethyl)-5-(phenylsulfonyl)benzenesulfonamide]	156 to 158 °C	1.4	1.1	2.1 µM	–	–	–	–
CC(C)c1ccc(S(=O)(=O)c2ccccc2)cc1S(=O)(=O)NC1CCN(C(=O)c2ccccc2)CC1 [Example 802, N-(1-Benzoylpiperidin-4-yl)-2-isopropyl-5-(phenylsulfonyl)benzenesulfonamide]	225 °C	–	–	0.17 µM	0.301 µM	2.6	–	–
CCCc1ccc(S(=O)(=O)c2ccccc2)cc1S(=O)(=O)NCCc1ccncc1 [Example 859, 5-(Phenylsulfonyl)-2-propyl-N-(2-pyridin-4-ylethyl)benzenesulfonamide]	155 to 157 °C	–	–	0.6 µM	1.54 µM	3.6	–	–
CC(C)c1cc(C(C)C)c(S(=O)(=O)c2ccc(F)cc2)cc1S(=O)(=O)NCCC1CCOCC1 [Example 630, 5-[(4-Fluorophenyl)sulfonyl]-2,4-diisopropyl-N-[2-(tetrahydro-2H-pyran-4-yl)ethyl]benzenesulfonamide]	141 to 143 °C	2.2	1	4 µM	–	–	–	–
CC(C)c1ccc(S(=O)(=O)c2ccccc2)cc1S(=O)(=O)NC1CCN(C(=O)c2cccc(F)c2)CC1 [Example 804, N-[1-(3-Fluorobenzoyl)piperidin-4-yl]-2-isopropyl-5-(phenylsulfonyl)benzenesulfonamide]	215 to 218 °C	–	–	0.3 µM	–	3	–	–
CCCc1ccc(S(=O)(=O)c2ccc(F)cc2)cc1S(=O)(=O)NC1CCOCC1 [Example 560, 5-[(4-Fluorophenyl)sulfonyl]-2-propyl-N-(tetrahydro-2H-pyran-4-yl)benzenesulfonamide]	131 to 133 °C	1.6	0.9	1.7 µM and 2.7 µM	–	–	–	–
CCCc1ccc(S(=O)(=O)c2ccccc2)cc1S(=O)(=O)NC1CCN(C(=O)OC(C)(C)C)CC1 [Example 558, tert-Butyl 4-({[5-(phenylsulfonyl)-2-propylphenyl]sulfonyl}amino)piperidine-1-carboxylate]	128 to 130 °C	1.8	1.1	0.7 µM	–	–	–	–
CC(C)c1cc(C(C)C)c(S(=O)(=O)c2ccc(F)cc2)cc1S(=O)(=O)NCCc1ccccn1 [Example 631, 5-[(4-Fluorophenyl)sulfonyl]-2,4-diisopropyl-N-(2-pyridin-2-ylethyl)benzenesulfonamide]	159 to 161 °C	2.4	1	4 µM	–	–	–	–
CC(C)c1ccc(S(=O)(=O)c2ccccc2)cc1S(=O)(=O)NC1CCN(C(=O)c2cccc(C#N)c2)CC1 [Example 810, N-[1-(3-Cyanobenzoyl)piperidin-4-yl]-2-isopropyl-5-(phenylsulfonyl)benzenesulfonamide]	120 to 122 °C	–	–	0.29 µM	0.818 µM	3.1	–	–
CC(C)c1ccc(S(=O)(=O)c2ccccc2)cc1S(=O)(=O)NC1CCN(C(=O)c2ccc(C#N)cc2)CC1 [Example 811, N-[1-(4-Cyanobenzoyl)piperidin-4-yl]-2-isopropyl-5-(phenylsulfonyl)benzenesulfonamide]	136 to 138 °C	–	–	0.3 µM	–	2.6	–	–
CCCc1ccc(S(=O)(=O)c2ccc(F)cc2)cc1S(=O)(=O)NCCc1ccncc1 [Example 875, 5-[(4-Fluorophenyl)sulfonyl]-2-propyl-N-(2-pyridin-4-ylethyl)benzenesulfonamide]	160 to 162 °C	–	–	0.6 µM	6.65 µM	1.6	–	–
CC(C)c1cc(C(C)C)c(S(=O)(=O)c2ccccc2)cc1S(=O)(=O)NCCc1ccncc1 [Example 617, 2,4-Diisopropyl-5-(phenylsulfonyl)-N-(2-pyridin-4-ylethyl)benzenesulfonamide]	178 to 180 °C	2	1.2	1 µM	–	–	–	–
Cc1ccc(S(=O)(=O)c2cc3c(c(S(=O)(=O)NCCc4ccccc4F)c2)CCCC3)cc1 [Example 441, N-[2-(2-Fluorophenyl)ethyl]-3-[(4-methylphenyl)sulfonyl]-5,6,7,8-tetrahydronaphthalene-1-sulfonamide]	55 to 60 °C	–	–	6 µM	–	–	1.8	1.1
CC(C)c1ccc(S(=O)(=O)c2ccccc2)cc1S(=O)(=O)NC1C[C@H]2CC[C@@H](C1)N2C.Cl (relative stereo) [Example 860, 2-Isopropyl-N-[(1R*,5S*)-8-methyl-8-azabicyclo[3.2.1]oct-3-yl]-5-(phenylsulfonyl)benzenesulfonamide monohydrochloride]	90 °C	–	–	0.8 µM	–	4.1	–	–
CCCc1ccc(S(=O)(=O)c2ccc(F)cc2)cc1S(=O)(=O)NCCc1cccnc1 [Example 874, 5-[(4-Fluorophenyl)sulfonyl]-2-propyl-N-(2-pyridin-3-ylethyl)benzenesulfonamide]	111 to 113 °C	–	–	1.95 µM	2 µM	3.1	–	–
COc1ccccc1C(=O)N1CCC(NS(=O)(=O)c2cc(S(=O)(=O)c3ccccc3)ccc2C(C)C)CC1 [Example 803, 2-Isopropyl-N-[1-(2-methoxybenzoyl)piperidin-4-yl]-5-(phenylsulfonyl)benzenesulfonamide]	160 to 162 °C	–	–	0.29 µM	–	3.2	–	–
CC(C)c1cc(C(C)C)c(S(=O)(=O)c2ccccc2)cc1S(=O)(=O)NCCC1CCOCC1 [Example 612, 2,4-Diisopropyl-5-(phenylsulfonyl)-N-[2-(tetrahydro-2H-pyran-4-yl)ethyl]benzenesulfonamide]	90 to 92 °C	2	1.1	1.6 µM	–	–	–	–
CCCc1ccc(S(=O)(=O)c2ccccc2)cc1S(=O)(=O)NCCc1ccccn1 [Example 555, 5-(Phenylsulfonyl)-2-propyl-N-(2-pyridin-2-ylethyl)benzenesulfonamide]	100 to 102 °C	3.1	1.2	0.7 µM and 1.1 µM	–	–	–	–
CCOc1ccc2ccccc2c1C(=O)N1CCC(NS(=O)(=O)c2cc(S(=O)(=O)c3ccccc3)ccc2C(C)C)CC1 [Example 813, N-[1-(2-Ethoxy-1-naphthoyl)piperidin-4-yl]-2-isopropyl-5-(phenylsulfonyl)benzenesulfonamide]	164 to 166 °C	–	–	0.4 µM	0.674 µM	3.9	–	–
CC(C)c1ccc(S(=O)(=O)c2ccccc2)cc1S(=O)(=O)NC1CCN(C(=O)c2ccccc2F)CC1 [Example 806, N-[1-(2-Fluorobenzoyl)piperidin-4-yl]-2-isopropyl-5-(phenylsulfonyl)benzenesulfonamide]	210 to 212 °C	–	–	0.23 µM	0.238 µM	2.8	–	–
